Measurements as given in ChEMBL document CHEMBL2331098, “Unprecedented polyketides from a marine sponge-associated Stachylidium sp” (J Nat Prod, 2013).
Calls of active or inactive are those of the source.

How the values were obtained:
[1] = target: GABA-A receptor; agonist GABA site (Homo sapiens) (UniProt P14867+P47870+P28472+P48169+P34903+P18505+P47869+P31644+Q16445); experiment: Displacement of [3H]muscimol from GABAA receptor (unknown origin) at 10 uM; assay type: protein-complex assay
Escherichia coli = experiment: Antimicrobial activity against Escherichia coli; assay type: functional, organism-based
[2] = target: Alpha-1D adrenergic receptor (Homo sapiens) (UniProt P25100); experiment: Displacement of radiolabeled ligand from alpha1D receptor (unknown origin) at 10 uM
Sequence of Alpha-1D adrenergic receptor (Homo sapiens) (P25100 whole entry): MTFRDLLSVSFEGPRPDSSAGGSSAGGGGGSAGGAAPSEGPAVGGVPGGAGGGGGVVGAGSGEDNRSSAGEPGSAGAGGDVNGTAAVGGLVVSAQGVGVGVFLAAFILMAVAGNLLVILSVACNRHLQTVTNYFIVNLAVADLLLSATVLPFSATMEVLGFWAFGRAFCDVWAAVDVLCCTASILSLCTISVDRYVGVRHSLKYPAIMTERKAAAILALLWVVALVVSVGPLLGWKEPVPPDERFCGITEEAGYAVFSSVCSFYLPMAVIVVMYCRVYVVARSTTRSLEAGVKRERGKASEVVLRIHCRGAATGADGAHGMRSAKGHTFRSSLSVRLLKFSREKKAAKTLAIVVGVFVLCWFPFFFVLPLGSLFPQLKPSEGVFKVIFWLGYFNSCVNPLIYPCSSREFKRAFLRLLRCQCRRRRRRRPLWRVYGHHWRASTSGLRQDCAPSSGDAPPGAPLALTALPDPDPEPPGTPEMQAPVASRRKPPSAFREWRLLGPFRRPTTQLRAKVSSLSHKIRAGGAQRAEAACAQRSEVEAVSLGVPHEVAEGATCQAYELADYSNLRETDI

[3] = target: 5-hydroxytryptamine receptor 2C (Homo sapiens) (UniProt P28335); experiment: Displacement of [3H]mesulergine from 5-HT2C receptor (unknown origin) at 10 uM
[4] = target: Histamine H1 receptor (Homo sapiens) (UniProt P35367); experiment: Displacement of [3H]pyrilamine from H1 receptor (unknown origin) at 10 uM
[5] = target: Histamine H2 receptor (Homo sapiens) (UniProt P25021); experiment: Displacement of [3H]tiotidine from H2 receptor (unknown origin) at 10 uM
[6] = target: Histamine H3 receptor (Homo sapiens) (UniProt Q9Y5N1); experiment: Displacement of [3H]alpha-methylhistamine from H3 receptor (unknown origin) at 10 uM
Sequence of Histamine H3 receptor (Homo sapiens) (Q9Y5N1 whole entry): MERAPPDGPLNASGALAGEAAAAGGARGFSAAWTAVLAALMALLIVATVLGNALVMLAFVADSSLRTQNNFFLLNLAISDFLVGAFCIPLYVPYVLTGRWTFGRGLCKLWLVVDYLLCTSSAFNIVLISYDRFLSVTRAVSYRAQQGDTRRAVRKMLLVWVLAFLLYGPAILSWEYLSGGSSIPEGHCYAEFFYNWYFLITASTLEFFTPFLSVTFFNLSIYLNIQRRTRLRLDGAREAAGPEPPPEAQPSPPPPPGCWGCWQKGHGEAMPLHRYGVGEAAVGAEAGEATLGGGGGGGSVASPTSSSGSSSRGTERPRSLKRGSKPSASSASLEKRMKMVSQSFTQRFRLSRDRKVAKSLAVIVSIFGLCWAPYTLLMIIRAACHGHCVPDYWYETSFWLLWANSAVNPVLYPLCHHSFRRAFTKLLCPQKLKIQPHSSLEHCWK

[7] = target: 5-hydroxytryptamine receptor 1A (Homo sapiens) (UniProt P08908); experiment: Displacement of [3H]8-OH-DPAT from 5-HT1A receptor (unknown origin) at 10 uM
[8] = target: Beta-2 adrenergic receptor (Homo sapiens) (UniProt P07550); experiment: Displacement of [125I]iodopindolol from beta2 receptor (unknown origin) at 10 uM
Sequence of Beta-2 adrenergic receptor (Homo sapiens) (P07550 whole entry, looked up): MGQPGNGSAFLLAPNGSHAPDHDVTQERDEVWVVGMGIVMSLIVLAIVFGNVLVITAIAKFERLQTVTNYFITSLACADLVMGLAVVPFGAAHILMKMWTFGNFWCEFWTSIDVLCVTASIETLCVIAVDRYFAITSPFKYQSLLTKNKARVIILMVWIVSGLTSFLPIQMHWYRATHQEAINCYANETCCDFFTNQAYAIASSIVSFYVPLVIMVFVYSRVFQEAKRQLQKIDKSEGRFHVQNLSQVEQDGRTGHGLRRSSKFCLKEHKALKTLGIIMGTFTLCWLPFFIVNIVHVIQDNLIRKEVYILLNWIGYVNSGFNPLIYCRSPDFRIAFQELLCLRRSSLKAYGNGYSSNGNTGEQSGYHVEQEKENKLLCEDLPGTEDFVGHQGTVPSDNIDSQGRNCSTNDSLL

[9] = target: D(2) dopamine receptor (Homo sapiens) (UniProt P14416); experiment: Displacement of [3H]N-methylspiperone from D2 receptor (unknown origin) at 10 uM
Aspergillus ruber = experiment: Antimicrobial activity against Eurotium rubrum; assay type: functional, organism-based
[10] = target: Beta-1 adrenergic receptor (Homo sapiens) (UniProt P08588); experiment: Displacement of [125I]iodopindolol from beta1 receptor (unknown origin) at 10 uM
[11] = target: Histamine H4 receptor (Homo sapiens) (UniProt Q9H3N8); experiment: Displacement of [3H]histamine from H4 receptor (unknown origin) at 10 uM
[12] = target: Muscarinic acetylcholine receptor M4 (Homo sapiens) (UniProt P08173); experiment: Displacement of [3H]QNB from M4 receptor (unknown origin) at 10 uM
[13] = target: Sodium-dependent dopamine transporter (Homo sapiens) (UniProt Q01959); experiment: Displacement of [3H]WIN35428 from DAT (unknown origin) at 10 uM
Mycotypha microspora = experiment: Antimicrobial activity against Mycotypha microspora; assay type: functional, organism-based
[Chlorella] fusca = Antimicrobial activity against Chlorella fusca; assay type: functional, organism-based; conditions: Scenedesmus fuscus
[14] = target: Sodium-dependent noradrenaline transporter (Homo sapiens) (UniProt P23975); experiment: Displacement of [3H]nisoxetine from NET (unknown origin) at 10 uM
Sequence of Sodium-dependent noradrenaline transporter (Homo sapiens) (P23975 whole entry, looked up): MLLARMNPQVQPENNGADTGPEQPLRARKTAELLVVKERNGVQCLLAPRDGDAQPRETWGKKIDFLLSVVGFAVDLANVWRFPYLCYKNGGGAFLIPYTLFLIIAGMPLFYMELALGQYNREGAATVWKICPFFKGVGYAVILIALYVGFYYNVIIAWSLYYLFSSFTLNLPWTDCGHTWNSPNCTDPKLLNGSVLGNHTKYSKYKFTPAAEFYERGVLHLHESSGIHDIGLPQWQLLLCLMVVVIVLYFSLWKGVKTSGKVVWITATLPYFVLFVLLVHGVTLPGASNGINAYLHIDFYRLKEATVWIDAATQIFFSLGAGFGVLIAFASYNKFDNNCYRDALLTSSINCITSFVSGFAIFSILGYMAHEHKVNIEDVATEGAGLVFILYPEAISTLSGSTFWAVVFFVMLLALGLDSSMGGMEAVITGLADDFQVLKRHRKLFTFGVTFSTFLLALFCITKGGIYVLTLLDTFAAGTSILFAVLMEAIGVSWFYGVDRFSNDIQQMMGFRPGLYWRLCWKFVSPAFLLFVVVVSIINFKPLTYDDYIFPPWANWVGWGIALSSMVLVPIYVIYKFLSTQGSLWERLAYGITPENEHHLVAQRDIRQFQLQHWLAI

[15] = target: Mu-type opioid receptor (Homo sapiens) (UniProt P35372); experiment: Displacement of [3H]DAMGO from mu opioid receptor (unknown origin) at 10 uM
Sequence of Mu-type opioid receptor (Homo sapiens) (P35372 whole entry): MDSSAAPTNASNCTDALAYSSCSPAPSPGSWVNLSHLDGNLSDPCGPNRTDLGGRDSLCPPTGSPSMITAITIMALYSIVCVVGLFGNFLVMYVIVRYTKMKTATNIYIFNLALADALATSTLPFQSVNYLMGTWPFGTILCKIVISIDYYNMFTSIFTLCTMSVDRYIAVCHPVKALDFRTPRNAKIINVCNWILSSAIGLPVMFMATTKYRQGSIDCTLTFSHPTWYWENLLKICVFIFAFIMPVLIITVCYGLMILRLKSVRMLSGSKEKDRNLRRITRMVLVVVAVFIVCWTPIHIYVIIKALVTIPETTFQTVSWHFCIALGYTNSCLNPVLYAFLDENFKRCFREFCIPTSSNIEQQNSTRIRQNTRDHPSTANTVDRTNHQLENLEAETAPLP

Microbotryum violaceum = experiment: Antimicrobial activity against Microbotryum violaceum; assay type: functional, organism-based
[16] = target: D(1B) dopamine receptor (Homo sapiens) (UniProt P21918); experiment: Displacement of [3H][…] from D5 receptor (unknown origin) at 10 uM
Sequence of D(1B) dopamine receptor (Homo sapiens) (P21918 whole entry): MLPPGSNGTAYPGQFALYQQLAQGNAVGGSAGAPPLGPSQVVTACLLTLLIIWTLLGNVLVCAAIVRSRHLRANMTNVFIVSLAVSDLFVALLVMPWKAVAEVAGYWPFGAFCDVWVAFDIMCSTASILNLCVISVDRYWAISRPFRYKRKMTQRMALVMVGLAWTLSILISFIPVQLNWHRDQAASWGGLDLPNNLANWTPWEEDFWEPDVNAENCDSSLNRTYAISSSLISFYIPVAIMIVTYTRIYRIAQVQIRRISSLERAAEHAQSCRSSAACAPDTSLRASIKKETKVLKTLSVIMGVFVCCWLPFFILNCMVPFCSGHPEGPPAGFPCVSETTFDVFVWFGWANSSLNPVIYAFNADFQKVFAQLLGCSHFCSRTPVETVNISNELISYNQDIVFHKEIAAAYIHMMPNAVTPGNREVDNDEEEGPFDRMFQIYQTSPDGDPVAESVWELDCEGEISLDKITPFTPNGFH

[17] = target: Delta-type opioid receptor (Homo sapiens) (UniProt P41143); experiment: Displacement of [3H]DADLE from delta opioid receptor (unknown origin) at 10 uM
[18] = target: Alpha-2A adrenergic receptor (Homo sapiens) (UniProt P08913); experiment: Displacement of [3H]clonidine from alpha2A receptor (unknown origin) at 10 uM
[19] = target: D(4) dopamine receptor (Homo sapiens) (UniProt P21917); experiment: Displacement of [3H]N-methylspiperone from D4 receptor (unknown origin) at 10 uM
[20] = target: 5-hydroxytryptamine receptor 6 (Homo sapiens) (UniProt P50406); experiment: Displacement of [3H]LSD from 5-HT6 receptor (unknown origin) at 10 uM
Sequence of 5-hydroxytryptamine receptor 6 (Homo sapiens) (P50406 whole entry): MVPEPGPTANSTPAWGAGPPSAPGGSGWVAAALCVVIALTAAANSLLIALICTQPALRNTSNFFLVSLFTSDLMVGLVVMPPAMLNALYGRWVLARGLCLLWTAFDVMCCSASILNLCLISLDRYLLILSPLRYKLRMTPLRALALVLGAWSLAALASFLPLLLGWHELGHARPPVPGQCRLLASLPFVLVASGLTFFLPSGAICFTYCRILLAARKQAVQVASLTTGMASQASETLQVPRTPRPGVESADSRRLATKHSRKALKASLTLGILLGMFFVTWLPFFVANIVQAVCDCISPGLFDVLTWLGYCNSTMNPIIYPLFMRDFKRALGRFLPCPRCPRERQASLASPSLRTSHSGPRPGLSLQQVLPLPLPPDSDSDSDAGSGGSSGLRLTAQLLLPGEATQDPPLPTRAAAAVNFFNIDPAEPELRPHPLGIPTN

Priestia megaterium = experiment: Antimicrobial activity against Bacillus megaterium; assay type: functional, organism-based
[21] = target: 5-hydroxytryptamine receptor 1B (Homo sapiens) (UniProt P28222); experiment: Displacement of [3H][…] from 5-HT1B receptor (unknown origin) at 10 uM
Sequence of 5-hydroxytryptamine receptor 1B (Homo sapiens) (P28222 whole entry): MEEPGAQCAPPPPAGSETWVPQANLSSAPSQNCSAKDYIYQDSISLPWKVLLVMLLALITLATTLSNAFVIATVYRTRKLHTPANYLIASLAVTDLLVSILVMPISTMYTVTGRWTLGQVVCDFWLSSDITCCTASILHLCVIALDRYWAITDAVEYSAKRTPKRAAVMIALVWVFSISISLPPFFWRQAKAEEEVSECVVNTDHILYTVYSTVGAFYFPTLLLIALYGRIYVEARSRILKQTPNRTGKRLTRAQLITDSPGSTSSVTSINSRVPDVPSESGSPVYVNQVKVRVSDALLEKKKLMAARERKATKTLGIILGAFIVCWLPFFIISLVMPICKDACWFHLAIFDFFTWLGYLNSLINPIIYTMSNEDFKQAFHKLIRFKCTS

[22] = target: 5-hydroxytryptamine receptor 7 (Homo sapiens) (UniProt P34969); experiment: Displacement of [3H]LSD from 5-HT7 receptor (unknown origin) at 10 uM
[23] = target: Muscarinic acetylcholine receptor M5 (Homo sapiens) (UniProt P08912); experiment: Displacement of [3H]QNB from M5 receptor (unknown origin) at 10 uM
[24] = target: Muscarinic acetylcholine receptor M2 (Homo sapiens) (UniProt P08172); experiment: Displacement of [3H]QNB from M2 receptor (unknown origin) at 10 uM
[25] = target: D(3) dopamine receptor (Homo sapiens) (UniProt P35462); experiment: Displacement of [3H]N-methylspiperone from D3 receptor (unknown origin) at 10 uM
[26] = target: 5-hydroxytryptamine receptor 2B (Homo sapiens) (UniProt P41595); experiment: Displacement of [3H]LSD from 5-HT2B receptor (unknown origin) at 10 uM
[27] = target: Muscarinic acetylcholine receptor M1 (Homo sapiens) (UniProt P11229); experiment: Displacement of [3H]QNB from M1 receptor (unknown origin) at 10 uM
[28] = target: Kappa-type opioid receptor (Homo sapiens) (UniProt P41145); experiment: Displacement of [3H]U69593 from kappa opioid receptor (unknown origin) at 10 uM
[29] = target: 5-hydroxytryptamine receptor 1E (Homo sapiens) (UniProt P28566); experiment: Displacement of [3H]5-HT from 5-HT1E receptor (unknown origin) at 10 uM
[30] = target: Sigma non-opioid intracellular receptor 1 (Homo sapiens) (UniProt Q99720); experiment: Displacement of [3H]pentazocine from sigma1 receptor (unknown origin) at 10 uM
Sequence of Sigma non-opioid intracellular receptor 1 (Homo sapiens) (Q99720 whole entry): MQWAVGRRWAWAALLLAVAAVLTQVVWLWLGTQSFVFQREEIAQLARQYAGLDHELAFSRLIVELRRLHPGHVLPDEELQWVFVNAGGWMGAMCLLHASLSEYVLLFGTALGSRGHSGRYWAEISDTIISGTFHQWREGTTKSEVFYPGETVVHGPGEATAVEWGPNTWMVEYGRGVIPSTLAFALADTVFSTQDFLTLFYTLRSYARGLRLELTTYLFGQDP

[31] = target: 5-hydroxytryptamine receptor 5A (Homo sapiens) (UniProt P47898); experiment: Displacement of [3H]LSD from 5-HT5A receptor (unknown origin) at 10 uM
[32] = target: 5-hydroxytryptamine receptor 2A (Homo sapiens) (UniProt P28223); experiment: Displacement of [3H]ketanserin from 5-HT2A receptor (unknown origin) at 10 uM
Rattus norvegicus = species on record: Rattus norvegicus; experiment: Displacement of [3H]flunitrazepam from rat brain BZP receptor (unknown origin) at 10 uM
[33] = target: 5-hydroxytryptamine receptor 3A (Homo sapiens) (UniProt P46098); experiment: Displacement of [3H]LY278584 from 5-HT3 receptor (unknown origin) at 10 uM
[34] = target: Alpha-2C adrenergic receptor (Homo sapiens) (UniProt P18825); experiment: Displacement of [3H]clonidine from alpha2C receptor (unknown origin) at 10 uM
Sequence of Alpha-2C adrenergic receptor (Homo sapiens) (P18825 whole entry): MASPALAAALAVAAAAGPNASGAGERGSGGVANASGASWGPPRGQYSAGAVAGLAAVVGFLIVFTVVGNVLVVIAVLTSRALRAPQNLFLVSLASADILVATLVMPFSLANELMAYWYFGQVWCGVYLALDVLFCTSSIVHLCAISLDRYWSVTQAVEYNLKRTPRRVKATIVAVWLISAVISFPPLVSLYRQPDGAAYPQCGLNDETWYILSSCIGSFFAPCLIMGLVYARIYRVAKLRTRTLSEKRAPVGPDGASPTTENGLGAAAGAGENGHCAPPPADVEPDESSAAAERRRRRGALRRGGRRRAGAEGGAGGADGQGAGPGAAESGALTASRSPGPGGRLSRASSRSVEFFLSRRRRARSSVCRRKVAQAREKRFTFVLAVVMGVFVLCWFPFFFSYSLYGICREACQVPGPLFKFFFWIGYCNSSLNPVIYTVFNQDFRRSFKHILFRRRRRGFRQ

[35] = target: Muscarinic acetylcholine receptor M3 (Homo sapiens) (UniProt P20309); experiment: Displacement of [3H]QNB from M3 receptor (unknown origin) at 10 uM
[36] = target: D(1A) dopamine receptor (Homo sapiens) (UniProt P21728); experiment: Displacement of [3H][…] from D1 receptor (unknown origin) at 10 uM
[37] = target: Alpha-1B adrenergic receptor (Homo sapiens) (UniProt P35368); experiment: Displacement of [3H]prazosin from alpha1B receptor (unknown origin) at 10 uM
[38] = target: Sodium-dependent serotonin transporter (Homo sapiens) (UniProt P31645); experiment: Displacement of [3H]citalopram from SERT (unknown origin) at 10 uM
[39] = target: Beta-3 adrenergic receptor (Homo sapiens) (UniProt P13945); experiment: Displacement of [125I]iodopindolol from beta3 receptor (unknown origin) at 10 uM
[40] = target: Alpha-2B adrenergic receptor (Homo sapiens) (UniProt P18089); experiment: Displacement of [3H]clonidine from alpha2B receptor (unknown origin) at 10 uM
[41] = target: 5-hydroxytryptamine receptor 1D (Homo sapiens) (UniProt P28221); experiment: Displacement of [3H][…] from 5-HT1D receptor (unknown origin) at 10 uM
[42] = target: Alpha-1A adrenergic receptor (Homo sapiens) (UniProt P35348); experiment: Displacement of [3H]prazosin from alpha1A receptor (unknown origin) at 10 uM
Sequence of Alpha-1A adrenergic receptor (Homo sapiens) (P35348 whole entry): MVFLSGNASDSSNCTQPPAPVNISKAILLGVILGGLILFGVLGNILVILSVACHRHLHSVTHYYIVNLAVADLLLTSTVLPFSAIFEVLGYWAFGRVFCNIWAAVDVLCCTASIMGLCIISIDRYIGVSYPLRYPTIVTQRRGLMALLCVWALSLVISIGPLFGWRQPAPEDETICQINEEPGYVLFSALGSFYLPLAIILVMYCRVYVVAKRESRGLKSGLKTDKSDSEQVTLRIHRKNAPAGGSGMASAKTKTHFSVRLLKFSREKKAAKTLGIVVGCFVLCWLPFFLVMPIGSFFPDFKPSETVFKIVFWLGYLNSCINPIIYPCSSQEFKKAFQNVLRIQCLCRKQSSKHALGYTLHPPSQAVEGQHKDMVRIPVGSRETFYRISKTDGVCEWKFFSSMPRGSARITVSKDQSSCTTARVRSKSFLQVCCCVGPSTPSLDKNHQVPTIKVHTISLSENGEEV

Homo sapiens = species on record: Homo sapiens; experiment: Displacement of [3H]DTG from sigma2 receptor (unknown origin) at 10 uM

COCc1c(C(C)O)cc(O)c(C)c1OC (stereo not given)
inactive: inhibition [1] | Activity (Escherichia coli) | inhibition [2] | inhibition [3] | inhibition [4] | inhibition [5] | inhibition [6] | inhibition [7] | inhibition [8] | inhibition [9] | Activity (Aspergillus ruber) | inhibition [10] | inhibition [11] | inhibition [12] | inhibition [13] | Activity (Mycotypha microspora) | Activity ([Chlorella] fusca) | inhibition [14] | inhibition [15] | Activity (Microbotryum violaceum) | inhibition [16] | inhibition [17] | inhibition [18] | inhibition [19] | inhibition [20] | Activity (Priestia megaterium) | inhibition [21] | inhibition [22] | inhibition [23] | inhibition [24] | inhibition [25] | inhibition [26] | inhibition [27] | inhibition [28] | inhibition [29] | inhibition [30] | inhibition [31] | inhibition [32] | inhibition (Rattus norvegicus) | inhibition [33] | inhibition [34] | inhibition [35] | inhibition [36] | inhibition [37] | inhibition [38] | inhibition [39] | inhibition [40] | inhibition [41] | inhibition [42] | inhibition (Homo sapiens)
